According to ChEMBL document CHEMBL5715954, “Silencing c-Myc translation as a therapeutic strategy through targeting PI3Kδ and CK1ε in hematological malignancies” (Blood, 2017):

Experiments:
Parameters in all cases: scale not given: the % may be the effect or the level left
[1] = biological target: Insulin-like growth factor 1 receptor (Homo sapiens) (UniProt P08069); assay: Inhibition of human IGF1R assessed as enzyme activity at 1 uM using KKKSPGEYVNIEFG as substrate preincubated for 20 mins followed by [gamma-33P]-ATP addition and measured after 120 mins by radiometric Hot-SpotSM Kinase assay relative to control
Chain of Insulin-like growth factor 1 receptor (Homo sapiens) (P08069 31-736 limits assumed): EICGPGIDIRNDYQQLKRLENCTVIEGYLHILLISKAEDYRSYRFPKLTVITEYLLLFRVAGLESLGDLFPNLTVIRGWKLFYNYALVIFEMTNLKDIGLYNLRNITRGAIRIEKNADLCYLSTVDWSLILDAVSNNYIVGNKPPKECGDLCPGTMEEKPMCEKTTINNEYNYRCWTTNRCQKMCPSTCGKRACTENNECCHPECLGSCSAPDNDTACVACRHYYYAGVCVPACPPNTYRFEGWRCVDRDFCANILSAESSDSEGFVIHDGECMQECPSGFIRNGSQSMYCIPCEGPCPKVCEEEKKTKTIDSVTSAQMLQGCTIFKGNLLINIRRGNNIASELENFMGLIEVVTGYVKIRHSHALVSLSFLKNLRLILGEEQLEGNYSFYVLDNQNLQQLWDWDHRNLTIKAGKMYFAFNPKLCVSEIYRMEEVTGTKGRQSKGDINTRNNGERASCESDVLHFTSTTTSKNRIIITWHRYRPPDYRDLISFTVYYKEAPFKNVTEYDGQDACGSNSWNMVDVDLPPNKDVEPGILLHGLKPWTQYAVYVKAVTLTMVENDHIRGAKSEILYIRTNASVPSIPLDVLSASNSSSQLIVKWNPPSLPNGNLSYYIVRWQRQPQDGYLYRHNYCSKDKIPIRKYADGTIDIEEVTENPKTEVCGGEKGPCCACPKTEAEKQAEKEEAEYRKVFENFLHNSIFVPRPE
Chain of Insulin-like growth factor 1 receptor (Homo sapiens) (P08069 741-1367 limits assumed): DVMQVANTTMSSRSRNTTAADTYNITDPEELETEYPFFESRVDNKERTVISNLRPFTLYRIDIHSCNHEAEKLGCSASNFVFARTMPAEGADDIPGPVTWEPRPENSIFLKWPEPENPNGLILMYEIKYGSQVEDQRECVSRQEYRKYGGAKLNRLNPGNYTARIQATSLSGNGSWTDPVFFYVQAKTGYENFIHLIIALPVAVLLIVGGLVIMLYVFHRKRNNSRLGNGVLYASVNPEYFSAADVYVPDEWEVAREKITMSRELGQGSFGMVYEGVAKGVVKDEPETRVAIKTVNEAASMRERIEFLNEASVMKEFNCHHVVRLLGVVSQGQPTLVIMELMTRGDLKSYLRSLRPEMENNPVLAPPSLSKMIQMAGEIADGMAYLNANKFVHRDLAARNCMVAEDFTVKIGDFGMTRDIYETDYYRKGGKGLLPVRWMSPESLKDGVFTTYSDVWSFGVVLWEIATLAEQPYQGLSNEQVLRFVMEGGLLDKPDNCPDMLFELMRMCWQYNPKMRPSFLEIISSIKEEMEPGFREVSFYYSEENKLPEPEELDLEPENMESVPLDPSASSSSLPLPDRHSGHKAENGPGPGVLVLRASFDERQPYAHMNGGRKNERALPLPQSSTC

[2] = biological target: Macrophage colony-stimulating factor 1 receptor (Homo sapiens) (UniProt P07333); assay: Inhibition of human FMS assessed as enzyme activity at 1 uM using poly[Glu:Tyr] (4:1) as substrate preincubated for 20 mins followed by [gamma-33P]-ATP addition and measured after 120 mins by radiometric Hot-SpotSM Kinase assay relative to control
[3] = biological target: T1, Dual serine/threonine and tyrosine protein kinase (Homo sapiens) (UniProt Q6XUX3); assay: Inhibition of human RIPK5 assessed as enzyme activity at 1 uM using myelin basic protein as substrate preincubated for 20 mins followed by [gamma-33P]-ATP addition and measured after 120 mins by radiometric Hot-SpotSM Kinase assay relative to control
T1 sequence (whole entry): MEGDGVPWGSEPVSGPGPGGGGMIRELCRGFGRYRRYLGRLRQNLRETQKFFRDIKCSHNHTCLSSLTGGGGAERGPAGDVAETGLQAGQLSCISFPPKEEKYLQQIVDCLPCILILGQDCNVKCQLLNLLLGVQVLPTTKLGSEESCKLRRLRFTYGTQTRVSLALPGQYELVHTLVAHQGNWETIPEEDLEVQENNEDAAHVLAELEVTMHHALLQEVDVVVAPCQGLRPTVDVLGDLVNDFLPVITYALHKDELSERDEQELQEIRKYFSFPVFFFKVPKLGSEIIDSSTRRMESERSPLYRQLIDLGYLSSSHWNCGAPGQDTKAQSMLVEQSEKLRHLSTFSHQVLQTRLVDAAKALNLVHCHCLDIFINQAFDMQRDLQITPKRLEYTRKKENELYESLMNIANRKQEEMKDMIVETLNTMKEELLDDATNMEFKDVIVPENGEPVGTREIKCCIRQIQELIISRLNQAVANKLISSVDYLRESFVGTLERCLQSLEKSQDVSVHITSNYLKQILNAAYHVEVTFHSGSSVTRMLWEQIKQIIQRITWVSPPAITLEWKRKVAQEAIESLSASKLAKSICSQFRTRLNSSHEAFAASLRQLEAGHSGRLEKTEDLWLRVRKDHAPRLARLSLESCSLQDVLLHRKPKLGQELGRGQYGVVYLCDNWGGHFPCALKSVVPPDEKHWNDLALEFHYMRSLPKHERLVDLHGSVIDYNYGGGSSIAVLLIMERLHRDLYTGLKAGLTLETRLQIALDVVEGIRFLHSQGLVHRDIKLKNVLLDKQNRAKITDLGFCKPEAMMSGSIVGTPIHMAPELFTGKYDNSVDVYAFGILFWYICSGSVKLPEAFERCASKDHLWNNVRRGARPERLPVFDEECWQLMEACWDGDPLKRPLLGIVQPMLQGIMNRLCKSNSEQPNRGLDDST

[4] = biological target: Mast/stem cell growth factor receptor Kit (Homo sapiens) (UniProt P10721); assay: Inhibition of human c-Kit assessed as enzyme activity at 1 uM using poly[Glu:Tyr] (4:1) as substrate preincubated for 20 mins followed by [gamma-33P]-ATP addition and measured after 120 mins by radiometric Hot-SpotSM Kinase assay relative to control
Chain of Mast/stem cell growth factor receptor Kit (Homo sapiens) (P10721 whole entry): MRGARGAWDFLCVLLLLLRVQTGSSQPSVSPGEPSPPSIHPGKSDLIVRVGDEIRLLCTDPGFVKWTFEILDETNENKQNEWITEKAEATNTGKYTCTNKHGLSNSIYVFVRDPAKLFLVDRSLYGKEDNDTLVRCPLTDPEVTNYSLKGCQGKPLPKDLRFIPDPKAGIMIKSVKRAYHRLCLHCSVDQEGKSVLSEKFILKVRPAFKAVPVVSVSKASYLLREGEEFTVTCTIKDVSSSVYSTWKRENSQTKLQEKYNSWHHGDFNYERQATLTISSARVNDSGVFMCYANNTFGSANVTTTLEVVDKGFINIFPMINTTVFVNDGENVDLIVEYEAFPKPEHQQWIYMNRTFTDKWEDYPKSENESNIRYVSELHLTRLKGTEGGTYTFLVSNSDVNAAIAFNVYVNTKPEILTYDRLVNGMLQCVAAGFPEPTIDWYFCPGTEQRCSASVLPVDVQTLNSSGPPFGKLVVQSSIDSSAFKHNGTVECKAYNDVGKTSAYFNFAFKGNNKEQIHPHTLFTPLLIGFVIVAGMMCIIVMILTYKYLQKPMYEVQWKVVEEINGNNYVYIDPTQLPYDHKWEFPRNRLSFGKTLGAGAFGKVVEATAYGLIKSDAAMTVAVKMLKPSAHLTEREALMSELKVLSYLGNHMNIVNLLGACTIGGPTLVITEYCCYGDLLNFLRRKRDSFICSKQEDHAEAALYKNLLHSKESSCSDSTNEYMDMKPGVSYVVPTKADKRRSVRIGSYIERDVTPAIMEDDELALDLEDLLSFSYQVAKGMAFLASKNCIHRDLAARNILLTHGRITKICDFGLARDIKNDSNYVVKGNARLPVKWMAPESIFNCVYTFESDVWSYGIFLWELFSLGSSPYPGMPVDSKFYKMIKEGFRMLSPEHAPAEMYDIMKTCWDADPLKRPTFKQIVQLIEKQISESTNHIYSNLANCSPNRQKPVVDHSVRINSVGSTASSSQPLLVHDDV

[5] = biological target: Platelet-derived growth factor receptor beta (Homo sapiens) (UniProt P09619); assay: Inhibition of human PDGFRb assessed as enzyme activity at 1 uM using poly[Glu:Tyr] (4:1) as substrate preincubated for 20 mins followed by [gamma-33P]-ATP addition and measured after 120 mins by radiometric Hot-SpotSM Kinase assay relative to control
Chain of Platelet-derived growth factor receptor beta (Homo sapiens) (P09619 whole entry): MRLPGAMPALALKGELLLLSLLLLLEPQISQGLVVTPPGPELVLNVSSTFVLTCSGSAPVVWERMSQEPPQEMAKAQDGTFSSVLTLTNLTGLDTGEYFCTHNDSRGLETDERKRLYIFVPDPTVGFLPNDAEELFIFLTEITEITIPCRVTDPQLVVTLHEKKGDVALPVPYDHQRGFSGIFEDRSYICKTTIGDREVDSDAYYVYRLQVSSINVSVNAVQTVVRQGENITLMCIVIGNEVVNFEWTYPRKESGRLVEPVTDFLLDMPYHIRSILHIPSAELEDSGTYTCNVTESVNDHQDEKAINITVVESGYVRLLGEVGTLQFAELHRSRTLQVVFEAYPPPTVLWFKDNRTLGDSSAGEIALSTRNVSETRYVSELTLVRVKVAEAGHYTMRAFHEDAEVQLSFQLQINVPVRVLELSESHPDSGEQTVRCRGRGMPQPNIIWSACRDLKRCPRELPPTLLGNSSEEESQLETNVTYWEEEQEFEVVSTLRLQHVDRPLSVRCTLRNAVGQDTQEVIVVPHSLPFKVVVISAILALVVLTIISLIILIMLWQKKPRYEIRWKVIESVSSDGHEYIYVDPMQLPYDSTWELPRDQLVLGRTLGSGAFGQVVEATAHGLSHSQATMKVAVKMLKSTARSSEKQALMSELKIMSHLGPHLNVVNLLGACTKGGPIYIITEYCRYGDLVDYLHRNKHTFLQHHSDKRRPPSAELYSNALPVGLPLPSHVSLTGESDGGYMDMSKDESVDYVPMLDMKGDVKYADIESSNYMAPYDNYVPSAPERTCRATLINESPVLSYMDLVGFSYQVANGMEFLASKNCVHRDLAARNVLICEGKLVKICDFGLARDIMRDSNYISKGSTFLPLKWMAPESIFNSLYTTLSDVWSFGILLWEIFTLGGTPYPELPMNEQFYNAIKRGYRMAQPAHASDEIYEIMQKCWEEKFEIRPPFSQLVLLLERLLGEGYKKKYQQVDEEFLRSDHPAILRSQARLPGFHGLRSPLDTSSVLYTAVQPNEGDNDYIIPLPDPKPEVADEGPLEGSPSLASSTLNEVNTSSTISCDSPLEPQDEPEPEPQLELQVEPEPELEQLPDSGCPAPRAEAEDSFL

[6] = biological target: Serine/threonine-protein kinase pim-3 (Homo sapiens) (UniProt Q86V86); assay: Inhibition of human PIM3 assessed as enzyme activity at 1 uM using RSRHSSYPAGT as substrate preincubated for 20 mins followed by [gamma-33P]-ATP addition and measured after 120 mins by radiometric Hot-SpotSM Kinase assay relative to control
[7] = biological target: T2, Serine/threonine-protein kinase DCLK1 (Homo sapiens) (UniProt O15075); assay: Inhibition of human DCAMKL1 assessed as enzyme activity at 1 uM using KKLNRTLSFAEPG as substrate preincubated for 20 mins followed by [gamma-33P]-ATP addition and measured after 120 mins by radiometric Hot-SpotSM Kinase assay relative to control
T2 sequence (whole entry): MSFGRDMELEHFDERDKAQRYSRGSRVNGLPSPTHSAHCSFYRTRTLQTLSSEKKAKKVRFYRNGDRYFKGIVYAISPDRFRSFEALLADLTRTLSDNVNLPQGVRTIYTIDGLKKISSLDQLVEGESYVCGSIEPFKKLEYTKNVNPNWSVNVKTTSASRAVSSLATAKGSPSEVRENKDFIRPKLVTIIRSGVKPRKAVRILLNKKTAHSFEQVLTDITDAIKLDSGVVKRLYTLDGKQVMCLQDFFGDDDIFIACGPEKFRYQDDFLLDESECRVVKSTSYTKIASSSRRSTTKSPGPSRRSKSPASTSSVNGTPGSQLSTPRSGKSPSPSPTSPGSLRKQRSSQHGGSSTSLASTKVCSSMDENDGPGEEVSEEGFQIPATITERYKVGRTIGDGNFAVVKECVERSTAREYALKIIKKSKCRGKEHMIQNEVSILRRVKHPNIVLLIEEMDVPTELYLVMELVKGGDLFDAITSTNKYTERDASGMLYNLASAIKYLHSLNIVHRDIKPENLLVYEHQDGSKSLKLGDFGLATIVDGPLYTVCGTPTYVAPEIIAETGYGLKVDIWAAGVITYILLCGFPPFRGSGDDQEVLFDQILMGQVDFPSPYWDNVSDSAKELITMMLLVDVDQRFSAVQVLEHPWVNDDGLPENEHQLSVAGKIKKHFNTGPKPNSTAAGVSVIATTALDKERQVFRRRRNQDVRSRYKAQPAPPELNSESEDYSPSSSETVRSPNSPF

[8] = biological target: Angiopoietin-1 receptor (Homo sapiens) (UniProt Q02763); assay: Inhibition of human TIE2 assessed as enzyme activity at 1 uM using poly[Glu:Tyr] (4:1) as substrate preincubated for 20 mins followed by [gamma-33P]-ATP addition and measured after 120 mins by radiometric Hot-SpotSM Kinase assay relative to control
[9] = biological target: Mitogen-activated protein kinase 7 (Homo sapiens) (UniProt Q13164); assay: Inhibition of human ERK5 assessed as enzyme activity at 1 uM using myelin basic protein as substrate preincubated for 20 mins followed by [gamma-33P]-ATP addition and measured after 120 mins by radiometric Hot-SpotSM Kinase assay relative to control
Chain of Mitogen-activated protein kinase 7 (Homo sapiens) (Q13164 2-816 limits assumed): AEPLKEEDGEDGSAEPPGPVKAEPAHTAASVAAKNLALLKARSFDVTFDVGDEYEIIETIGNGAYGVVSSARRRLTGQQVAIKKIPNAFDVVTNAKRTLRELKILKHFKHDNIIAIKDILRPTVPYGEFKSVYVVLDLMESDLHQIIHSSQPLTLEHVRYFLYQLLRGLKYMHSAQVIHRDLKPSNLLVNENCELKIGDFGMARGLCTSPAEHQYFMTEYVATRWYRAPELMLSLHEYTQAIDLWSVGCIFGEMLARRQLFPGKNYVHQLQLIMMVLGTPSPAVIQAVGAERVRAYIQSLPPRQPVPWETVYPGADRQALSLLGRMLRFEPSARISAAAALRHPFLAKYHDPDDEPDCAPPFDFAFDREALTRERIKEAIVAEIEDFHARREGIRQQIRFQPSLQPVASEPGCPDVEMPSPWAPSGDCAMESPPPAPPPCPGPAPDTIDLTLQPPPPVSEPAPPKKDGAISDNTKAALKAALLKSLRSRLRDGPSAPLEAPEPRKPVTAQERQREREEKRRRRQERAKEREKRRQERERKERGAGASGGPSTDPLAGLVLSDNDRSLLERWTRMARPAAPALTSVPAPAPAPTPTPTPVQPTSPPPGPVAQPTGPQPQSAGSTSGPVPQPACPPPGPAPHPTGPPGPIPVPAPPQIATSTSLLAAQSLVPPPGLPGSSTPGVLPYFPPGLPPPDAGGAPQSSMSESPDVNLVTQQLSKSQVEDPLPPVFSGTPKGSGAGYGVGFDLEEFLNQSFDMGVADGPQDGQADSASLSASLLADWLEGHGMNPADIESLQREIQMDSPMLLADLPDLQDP

[10] = biological target: Vascular endothelial growth factor receptor 2 (Homo sapiens) (UniProt P35968); assay: Inhibition of human KDR assessed as enzyme activity at 1 uM using poly[Glu:Tyr] (4:1) as substrate preincubated for 20 mins followed by [gamma-33P]-ATP addition and measured after 120 mins by radiometric Hot-SpotSM Kinase assay relative to control

SMILES | Activity [1] [%] | Activity [2] [%] | Activity [3] [%] | Activity [4] [%] | Activity [5] [%] | Activity [6] [%] | Activity [7] [%] | Activity [8] [%] | Activity [9] [%] | Activity [10] [%]
CC[C@H](Nc1ncnc2[nH]cnc12)c1nc2cccc(F)c2c(=O)n1-c1ccccc1 | 91.5 | 98.1 | 90 | 99.4 | 102 | 104 | 89.3 | 97.9 | 90.6 | 97.7
C[C@H](Nc1ncnc2nc[nH]c12)c1cc2cccc(Cl)c2c(=O)n1-c1ccccc1 | 102 | 100 | 96 | 103 | 97.8 | 95.4 | 89.4 | 97.3 | 92.9 | 95.9
CC(C)Oc1ccc(-c2nn([C@@H](C)c3oc4ccc(F)cc4c(=O)c3-c3cccc(F)c3)c3ncnc(N)c23)cc1F [UMBRALISIB] | 96.5 | 104 | 90.7 | 97.4 | 104 | 102 | 88.3 | 92 | 103 | 101
